In patent publication US10385036B2, “Sulfonamide-substituted indole modulators of RORC2 and methods of use thereof” (Pfizer Inc., priority 2015, dated 2019):

Columns and labels:
[1] = system: IL-17 production from human Th17 cells; assay: Assay of IL-17 production from human Th17 cells; format: cell-based; details: 144 h; IL-17A in supernatant by ELISA (MSD) after 6 days, human CD4+ T cells differentiated into Th17; read-out: IC50
Method: The activity of compound of the invention can be also be determined by an IL-17 production from human Th17 cells assay. In general, this assay measures blockade of IL-17 production, the signature cytokine of T helper 17 (Th17) cells, by compounds. Purified human CD4+ T cells are stimulated with anti-CD3+anti-CD28 and incubated with a cytokine cocktail that induce their differentiation into Th17 in the absence or presence of various concentrations of compound. After 6 days, IL-17A concentration is measured in the cell culture supernatant with an ELISA kit (MSD).
Preparation of human CD4+ T cells. CD4+ T cells were purified from buffy coats from healthy donors (obtained from Massachusetts General Hospital) by negative selection the following procedure: Mixing 25 mL of blood with 1 mL of Rosette Sep CD4+ T cell enrichment cocktail (StemCell Technologies) followed by application of a layer of 14 mL Ficoll Paque Plus (Amersham GE Healthcare) and subsequent centrifugation at 1200 g for 20 min at room temperature. The Ficoll layer was then harvested and washed with phosphate saline buffer containing 2% (v/v) fetal bovine serum and cells were resuspended with RPMI medium containing 10% (v/v) fetal bovine serum and 10% (v/v) DMSO, frozen and kept in LN2 until used.
[…] Serial dilutions of compounds of the invention are prepared at 10× final concentration in X-Vivo15 medium containing 3% (v/v) DMSO.
On the second day of the assay, a 384-well tissue culture plate was coated with 10 μg/mL anti-hCD3 (eBioscience) at 50 μL/well. After 2 hr at 37° C., the supernatant is discarded and the coated plates are kept in a sterile tissue culture hood.
The cytokine plus anti-CD28 cocktail with CD4+ cells is prepared such that the cocktail is diluted 10-fold and cell density is 0.22×10^6/mL. The mixture is incubated 1 hr at 37° C.
90 μL (20,000 cells) dispensed per well in the anti-hCD3 coated plate prepared as noted above.
10 μL 10× compound is added per well (final DMSO=0.3%) from the compound plate that was previously prepared, followed by 6 days of incubation in a tissue culture vessel in a humidified chamber at 37° C. and 5% CO2.
Measurement is carried out in a Sector Imager 6000 by the same manufacturer. Signal units from the instrument are converted to pg/mL using a calibration curve with known amounts of IL-17A. IC50 values of test compounds (Table 2) are determined by the non-linear regression analysis of dose response curves.

[2] = target: RORC2 ligand binding domain (6-His-RORC2 LBD) (Homo sapiens (Human), UniProt P51449); assay: Assay of co-activator recruitment by TR-FRET; format: biochemical; details: 6-His-RORC2 LBD / biotin-coactivator peptide SRC1-2 interaction, 3 hr room temperature
Sequence of RORC2 ligand binding domain (6-His-RORC2 LBD) (P51449 269-508): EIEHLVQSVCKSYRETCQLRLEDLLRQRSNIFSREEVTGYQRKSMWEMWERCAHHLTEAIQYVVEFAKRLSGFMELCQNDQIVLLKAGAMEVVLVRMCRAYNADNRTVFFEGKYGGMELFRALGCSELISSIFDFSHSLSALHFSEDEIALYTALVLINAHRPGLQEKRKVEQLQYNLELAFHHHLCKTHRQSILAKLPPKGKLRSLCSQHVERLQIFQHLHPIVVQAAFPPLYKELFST
Method: The activity of compound of the invention can be determined by a co-activator recruitment by TR-FRET (time-resolved fluorescence resonance energy transfer) assay. […] When receptor and coactivator are bound to each other, upon shining light at 337 nm on the sample, the Europium emits fluorescence that excites APC due to close proximity (FRET) and this signal is measured at 665 nm. Due to the long lasting fluorescence emission of Europium, the non-specific, short-lived fluorescence is time-resolved (TR) from the fluorescence of interest. Inhibitors of the interaction of receptor and coactivator peptide are detected by a decrease in TR-FRET signal.
Specifically, in one embodiment the aforementioned assay was performed as outlined below. The assay was carried out in black polystyrene, 384-well plates in a total assay volume of 50.5 μL. The assay buffer contained 50 mM TRIS-HCL pH 7.5, 1 mM NaCl, 2 mM MgCl2, 0.5 mg/mL bovine serum albumin, and 5 mM dithiothreitol.

Compound | IC50 [1] [nM] | IC50 [2] [nM]
C[C@@H](C(=O)N1CCC(c2cn(C)c3ccc(NS(=O)(=O)c4ccc(F)cc4)cc23)CC1)C12CC(C1)C2 [Example 31, (R)-N-(3-(1-(2-(bicyclo[1.1.1]pentan-1-yl)propanoyl)piperidin-4-yl)-1-methyl-1H-indol-5-yl)-4-fluorobenzenesulfonamide] | 26 | 2.4
Cn1cc(C2CCN(C(=O)C3CCCC3)CC2)c2cc(NS(=O)(=O)c3ccccc3F)ccc21 [Example 17, N-(3-(1-(cyclopentanecarbonyl)piperidin-4-yl)-1-methyl-1H-indol-5-yl)-2-fluorobenzenesulfonamide] | 114 | 5.9
Cc1nn(C)c(C)c1S(=O)(=O)Nc1ccc2c(c1)c(C1CCN(C(=O)[C@H](C)C(C)(C)C)CC1)cn2C [Example 26, (R)-1,3,5-trimethyl-N-(1-methyl-3-(1-(2,3,3-trimethylbutanoyl)piperidin-4-yl)-1H-indol-5-yl)-1H-pyrazole-4-sulfonamide] | 5.1 | 1.3
C[C@H]1CN(C(=O)[C@H](C)C(C)(C)C)CC[C@H]1c1cn(C)c2ccc(NS(=O)(=O)c3ccc(F)cc3)cc12 [Example 1, 4-fluoro-N-(1-methyl-3-((3R,4R)-3-methyl-1-((R)-2,3,3-trimethylbutanoyl)piperidin-4-yl)-1H-indol-5-yl)benzenesulfonamide] | 13.5 | 8.2
Cc1nn(C)c(C)c1S(=O)(=O)Nc1ccc2c(c1)c([C@@H]1CCN(C(=O)[C@H](C)C3CCCC3)C[C@@H]1C)cn2C (single isomer, unassigned) [Example 32] | 3.3 | 2.5
Cn1cc(C2CCN(C(=O)C3CCC3)CC2)c2cc(NS(=O)(=O)c3ccc(F)cc3)ccc21 [Example 11, N-(3-(1-(cyclobutanecarbonyl)piperidin-4-yl)-1-methyl-1H-indol-5-yl)-4-fluorobenzenesulfonamide] | 148 | 28.8
CC(C)CC(=O)N1CCC(c2cn(C)c3ccc(NS(=O)(=O)c4ccc(F)cc4)cc23)CC1 [Example 12, 4-Fluoro-N-(1-methyl-3-(1-(3-methylbutanoyl)piperidin-4-yl)-1H-indol-5-yl)benzenesulfonamide] | 127 | 7.8
Cn1cc([C@@H]2CCN(C(=O)C3CCCC3)C(C)(C)C2)c2cc(NS(=O)(=O)c3ccc(F)cc3)ccc21 (single isomer, unassigned) [Example 19] | 191 | 3.7
COc1cc(S(=O)(=O)Nc2ccc3c(c2)c(C2CCN(C(=O)C(C)C)CC2)cn3C)ccc1F [Example 22, 4-fluoro-N-(3-(1-isobutyrylpiperidin-4-yl)-1-methyl-1H-indol-5-yl)-3-methoxybenzenesulfonamide] | 267 | 10.6
